Source: patent US20090054504A1 (KNOPP NEUROSCIENCES, INC., priority 2007, published 2009)
Where two headings read alike, the source gives them in different places.

Columns and labels:
[1] = molecular target: human cloned dopamine receptors (D3) (Homo sapiens, UniProt P35462); assay: biochemical
Description: (§1) These concentrations were tested in cell lines expressing select human cloned dopamine receptors (D2S, D3).

[2] = molecular target: D1 dopamine receptor (Homo sapiens, UniProt P21728); conditions: literature and own data
Sequence of D1 dopamine receptor (P21728 whole entry): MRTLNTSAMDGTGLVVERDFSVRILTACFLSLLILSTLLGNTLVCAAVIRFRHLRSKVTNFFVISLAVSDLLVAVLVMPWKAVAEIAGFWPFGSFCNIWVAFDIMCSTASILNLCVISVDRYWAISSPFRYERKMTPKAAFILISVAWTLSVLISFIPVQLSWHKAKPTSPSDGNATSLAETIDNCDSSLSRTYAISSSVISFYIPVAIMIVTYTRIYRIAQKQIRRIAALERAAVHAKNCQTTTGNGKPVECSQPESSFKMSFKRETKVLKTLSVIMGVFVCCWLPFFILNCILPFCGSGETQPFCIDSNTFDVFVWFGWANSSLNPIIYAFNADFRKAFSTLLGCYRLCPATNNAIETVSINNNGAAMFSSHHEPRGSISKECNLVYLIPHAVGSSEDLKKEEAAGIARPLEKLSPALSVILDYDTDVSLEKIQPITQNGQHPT
Description: as §1

[3] = molecular target: D5 dopamine receptor (Homo sapiens, UniProt P21918); conditions: literature and own data
Sequence of D5 dopamine receptor (P21918 whole entry): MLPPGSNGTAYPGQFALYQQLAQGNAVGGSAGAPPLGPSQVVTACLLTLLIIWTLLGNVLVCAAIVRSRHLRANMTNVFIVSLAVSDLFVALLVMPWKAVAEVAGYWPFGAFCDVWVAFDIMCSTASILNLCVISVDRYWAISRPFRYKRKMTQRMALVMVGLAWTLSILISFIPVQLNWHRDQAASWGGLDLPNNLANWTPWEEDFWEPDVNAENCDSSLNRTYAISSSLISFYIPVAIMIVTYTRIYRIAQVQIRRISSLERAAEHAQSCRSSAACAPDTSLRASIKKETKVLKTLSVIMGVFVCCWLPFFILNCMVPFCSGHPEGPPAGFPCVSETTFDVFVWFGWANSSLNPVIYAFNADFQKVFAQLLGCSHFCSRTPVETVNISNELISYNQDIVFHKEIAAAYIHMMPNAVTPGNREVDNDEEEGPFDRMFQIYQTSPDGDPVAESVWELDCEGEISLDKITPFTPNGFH
Description: as §1

[4] = tested on: non-naïve male beagle dogs
Description: (§2) Doses were administered orally by gavage and clinical observations were taken continuously following dosing: hourly for the first four hours, and then twice daily cage-side observations for the duration of the inter-dose or post-dose interval. Observations were made of clinical signs, mortality, injury and availability of food and water. Animals were fasted for 24 hr prior to dosing. Dogs in each group were exposed to only one drug, or the combination; each dose was administered only once, with a subsequent dose administered after a recovery period of 4 days.

[5] = tested on: monkeys treated with MPTP; conditions: from MPTP monkey dose
[6] = in vivo; conditions: male, dog
Description: as §2

[7] = tested on: monkeys treated with MPTP; conditions: motor deficits and Parkinson-like symptoms; cited from earlier work
[8] = tested on: Parkinson's disease patients; conditions: human trials; cited from earlier work
[9] = tested on: restless legs syndrome patients; conditions: human trials; cited from earlier work
[10] = tested on: rodents; conditions: single oral dose; cited from earlier work
[11] = tested on: dogs; conditions: single oral dose; cited from earlier work
[12] = tested on: human subjects; conditions: cited from earlier work; for MRTD (maximum recommended therapeutic dose): FDA MRTD database
[13] = male, beagle, dog, in vivo, 1 study day
[14] = male, beagle, dog, in vivo, 8 study day

Sequence of human cloned dopamine receptors (D3) (P35462 whole entry): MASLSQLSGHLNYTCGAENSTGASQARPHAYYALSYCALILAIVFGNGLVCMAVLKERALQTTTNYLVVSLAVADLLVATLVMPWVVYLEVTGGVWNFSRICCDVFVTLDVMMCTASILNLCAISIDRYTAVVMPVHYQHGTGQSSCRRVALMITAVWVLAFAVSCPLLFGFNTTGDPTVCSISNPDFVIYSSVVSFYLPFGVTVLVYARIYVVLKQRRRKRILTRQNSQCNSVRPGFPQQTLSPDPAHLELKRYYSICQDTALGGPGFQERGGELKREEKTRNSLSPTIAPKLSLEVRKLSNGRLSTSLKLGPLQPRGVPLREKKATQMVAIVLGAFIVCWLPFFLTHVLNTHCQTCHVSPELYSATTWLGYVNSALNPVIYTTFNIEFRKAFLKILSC

CCCN[C@H]1CCc2nc(N)sc2C1 [PPX, (6S)-4,5,6,7-tetrahydro-N6-propyl-2,6-benzothiazole-diamine]
IC50 [1]: 0.94 nM | interaction with D1 dopamine receptors [2]: no significant interaction | interaction with D5 dopamine receptors [3]: no significant interaction | human dose equivalent to the dog NOAEL, for a 70 kg individual ([4]; IR dose, from dog data): 0.05 mg | human equivalence dose of the dog MTD, for a 70 kg human subject ([4]; from dog data): 0.30 mg | Behavior/Activity: Activity decreased ([4]; male, beagle, dog, in vivo): 3/4 | Excretion: Feces soft ([4]; male, beagle, dog, in vivo): 0/4 | Excretion: Feces watery ([4]; male, beagle, dog, in vivo): 0/4 | External Appearance: Lacrimation ([4]; male, beagle, dog, in vivo): 0/4 | Eye/Ocular: Pupils dilated ([4]; male, beagle, dog, in vivo): 0/4 | Pelage/Skin: Skin warm to touch ([4]; male, beagle, dog, in vivo): 0/4 | Behavior/Activity: Convulsions - clonic [4, 13]: 0/4 | Behavior/Activity: Salivation [4, 13]: 0/4 | Behavior/Activity: Tremors [4, 13]: 1/4 | Excretion: Emesis [4, 13]: 3/4 | Excretion: Feces hard [4, 13]: 1/4 | Excretion: Feces mucoid [4, 13]: 0/4 | Behavior/Activity: Activity decreased [4, 14]: 0/4 | Behavior/Activity: Tremors [4, 14]: 0/4 | Excretion: Emesis [4, 14]: 0/4 | Excretion: Feces hard [4, 14]: 0/4 | equivalent human immediate release dose [5]: 17 µg/kg | equivalent human immediate release dose for a 70 kg individual [5]: 1.2 mg | NOAEL at 4 days [6]: 0.7 µg/kg | MTD at 4 days ([6]; po): 7.5 µg/kg | NOAEL at 4 days ([6]; po): 1.25 µg/kg | lowest effective oral immediate release dose [7]: 53 µg/kg | lowest effective oral immediate release dose versus placebo, Parkinson's disease [8]: 1.1 mg/day | lowest effective dose versus placebo, restless legs syndrome [9]: 0.25 mg/day | immediate release doses at which deaths occurred (and above) [10]: 70000 to 105000 µg/kg | dose at which vomiting occurred (and above) [11]: ≥ 0.7 µg/kg | MRTD (maximum recommended therapeutic dose) ([12]; for a 70 lb. person): 7.0 mg/day | MRTD (maximum recommended therapeutic dose) [12]: 0.11 mg/kg/day | immediate release dose shown to cause somnolence ([12]; human subjects): 1.5 mg | starting daily dose not tolerated ([12]; naïve patient): greater than 0.20 mg
